Measured values published in ChEMBL document CHEMBL1123417, “New structure-activity relationships of the quinolone antibacterials using the target enzyme. The development and application of a DNA gyrase assay” (J Med Chem, 1986).
Converted amounts (≈) assume the structure as drawn.

system: Staphylococcus aureus; assay: Antibacterial activity against Staphylococcus aureus (H228)

Compound | MIC [µg/mL]
CCn1cc(C(=O)O)c(=O)c2c(N)nc(N3CCN(C)CC3)nc21 | 100 (≈ 301 µM)
CCn1cc(C(=O)O)c(=O)c2cc(F)c(NCCN)nc21 | > 100
CCn1cc(C(=O)O)c(=O)c2cc(F)ccc21 | > 100
CCn1cc(C(=O)O)c(=O)c2cc(F)c(/C=N/N3CCN(C)CC3)nc21 | 25 (≈ 69.2 µM)
CCn1cc(C(=O)O)c(=O)c2cc(F)c(N3CCN(CCN)CC3)nc21 | 50 (≈ 138 µM)

More lines, in order of falling MIC, values ahead:

MIC [µg/mL] | Compound
25 (≈ 80.6 µM) | CCn1cc(C(=O)O)c(=O)c2cc(F)c(SCCN)cc21
25 (≈ 73.4 µM) | CCn1cc(C(=O)O)c(=O)c2ccc(N3CCN(CC#N)CC3)cc21
12.5 (≈ 30.9 µM) | CCn1cc(C(=O)O)c(=O)c2cc(F)c(N3CCN(CCCN(C)C)CC3)cc21
3.1 (≈ 7.9 µM) | CCOC(=O)N1CCN(c2nc3c(cc2F)c(=O)c(C(=O)O)cn3CC)CC1
1.6 (≈ 3.84 µM) | CCn1cc(C(=O)O)c(=O)c2cc(F)c(N3CCC(N4CCN(C)CC4)CC3)cc21

system: Escherichia coli; assay: Antibacterial activity against Escherichia coli (H560)

Compound | MIC [µg/mL]
CCn1cc(C(=O)O)c(=O)c2c(N)nc(N3CCN(C)CC3)nc21 | 3.1 (≈ 9.33 µM)
CCn1cc(C(=O)O)c(=O)c2cc(F)c(NCCN)nc21 | 25 (≈ 85 µM)
CCn1cc(C(=O)O)c(=O)c2cc(F)ccc21 | 25 (≈ 106 µM)
CCn1cc(C(=O)O)c(=O)c2cc(F)c(/C=N/N3CCN(C)CC3)nc21 | 50 (≈ 138 µM)
CCn1cc(C(=O)O)c(=O)c2cc(F)c(N3CCN(CCN)CC3)nc21 | 12.5 (≈ 34.4 µM)

Second part, the compound after the results:

MIC [µg/mL] | Compound
3.1 (≈ 9.99 µM) | CCn1cc(C(=O)O)c(=O)c2cc(F)c(SCCN)cc21
50 (≈ 147 µM) | CCn1cc(C(=O)O)c(=O)c2ccc(N3CCN(CC#N)CC3)cc21
3.1 (≈ 7.66 µM) | CCn1cc(C(=O)O)c(=O)c2cc(F)c(N3CCN(CCCN(C)C)CC3)cc21
50 (≈ 127 µM) | CCOC(=O)N1CCN(c2nc3c(cc2F)c(=O)c(C(=O)O)cn3CC)CC1
12.5 (≈ 30 µM) | CCn1cc(C(=O)O)c(=O)c2cc(F)c(N3CCC(N4CCN(C)CC4)CC3)cc21

target: DNA gyrase (Escherichia coli) (UniProt P0AES6+P0AES4); assay: not given

Compound | gyrase cleavage conc [µg/mL]
CCn1cc(C(=O)O)c(=O)c2c(N)nc(N3CCN(C)CC3)nc21 | 100
CCn1cc(C(=O)O)c(=O)c2cc(F)c(NCCN)nc21 | 50
CCn1cc(C(=O)O)c(=O)c2cc(F)ccc21 | 50
CCn1cc(C(=O)O)c(=O)c2cc(F)c(/C=N/N3CCN(C)CC3)nc21 | 100
CCn1cc(C(=O)O)c(=O)c2cc(F)c(N3CCN(CCN)CC3)nc21 | 6.3

Other lines, results leading:

gyrase cleavage conc [µg/mL] | Compound
5 | CCn1cc(C(=O)O)c(=O)c2cc(F)c(SCCN)cc21
18 | CCn1cc(C(=O)O)c(=O)c2ccc(N3CCN(CC#N)CC3)cc21
50 | CCn1cc(C(=O)O)c(=O)c2cc(F)c(N3CCN(CCCN(C)C)CC3)cc21
18 | CCOC(=O)N1CCN(c2nc3c(cc2F)c(=O)c(C(=O)O)cn3CC)CC1
50 | CCn1cc(C(=O)O)c(=O)c2cc(F)c(N3CCC(N4CCN(C)CC4)CC3)cc21

system: Escherichia coli; assay: Antibacterial activity against Escherichia coli (vogel)

Compound | MIC [µg/mL]
CCn1cc(C(=O)O)c(=O)c2c(N)nc(N3CCN(C)CC3)nc21 | 1.6 (≈ 4.81 µM)
CCn1cc(C(=O)O)c(=O)c2cc(F)c(NCCN)nc21 | 12.5 (≈ 42.5 µM)
CCn1cc(C(=O)O)c(=O)c2cc(F)ccc21 | 0.8 (≈ 3.4 µM)
CCn1cc(C(=O)O)c(=O)c2cc(F)c(/C=N/N3CCN(C)CC3)nc21 | 25 (≈ 69.2 µM)
CCn1cc(C(=O)O)c(=O)c2cc(F)c(N3CCN(CCN)CC3)nc21 | 12.5 (≈ 34.4 µM)

Continued, values first:

MIC [µg/mL] | Compound
0.8 (≈ 2.58 µM) | CCn1cc(C(=O)O)c(=O)c2cc(F)c(SCCN)cc21
50 (≈ 147 µM) | CCn1cc(C(=O)O)c(=O)c2ccc(N3CCN(CC#N)CC3)cc21
6.3 (≈ 15.6 µM) | CCn1cc(C(=O)O)c(=O)c2cc(F)c(N3CCN(CCCN(C)C)CC3)cc21
25 (≈ 63.7 µM) | CCOC(=O)N1CCN(c2nc3c(cc2F)c(=O)c(C(=O)O)cn3CC)CC1
3.1 (≈ 7.44 µM) | CCn1cc(C(=O)O)c(=O)c2cc(F)c(N3CCC(N4CCN(C)CC4)CC3)cc21

system: Pseudomonas aeruginosa; assay: Antibacterial activity against Pseudomonas aeruginosa (UI-18)

Compound | MIC [µg/mL]
CCn1cc(C(=O)O)c(=O)c2c(N)nc(N3CCN(C)CC3)nc21 | 100 (≈ 301 µM)
CCn1cc(C(=O)O)c(=O)c2cc(F)c(NCCN)nc21 | 50 (≈ 170 µM)
CCn1cc(C(=O)O)c(=O)c2cc(F)ccc21 | > 100
CCn1cc(C(=O)O)c(=O)c2cc(F)c(/C=N/N3CCN(C)CC3)nc21 | > 100
CCn1cc(C(=O)O)c(=O)c2cc(F)c(N3CCN(CCN)CC3)nc21 | 50 (≈ 138 µM)

Continued, values first:

MIC [µg/mL] | Compound
3.1 (≈ 9.99 µM) | CCn1cc(C(=O)O)c(=O)c2cc(F)c(SCCN)cc21
100 (≈ 294 µM) | CCn1cc(C(=O)O)c(=O)c2ccc(N3CCN(CC#N)CC3)cc21
12.5 (≈ 30.9 µM) | CCn1cc(C(=O)O)c(=O)c2cc(F)c(N3CCN(CCCN(C)C)CC3)cc21
200 (≈ 510 µM) | CCOC(=O)N1CCN(c2nc3c(cc2F)c(=O)c(C(=O)O)cn3CC)CC1
50 (≈ 120 µM) | CCn1cc(C(=O)O)c(=O)c2cc(F)c(N3CCC(N4CCN(C)CC4)CC3)cc21

system: Streptococcus pneumoniae; assay: Antibacterial activity against Streptococcus pneumoniae (SV-1)

Compound | MIC [µg/mL]
CCn1cc(C(=O)O)c(=O)c2c(N)nc(N3CCN(C)CC3)nc21 | 100 (≈ 301 µM)
CCn1cc(C(=O)O)c(=O)c2cc(F)c(NCCN)nc21 | > 100
CCn1cc(C(=O)O)c(=O)c2cc(F)ccc21 | > 100
CCn1cc(C(=O)O)c(=O)c2cc(F)c(/C=N/N3CCN(C)CC3)nc21 | 100 (≈ 277 µM)
CCn1cc(C(=O)O)c(=O)c2cc(F)c(N3CCN(CCN)CC3)nc21 | 12.5 (≈ 34.4 µM)

Second part, the compound after the results:

MIC [µg/mL] | Compound
25 (≈ 80.6 µM) | CCn1cc(C(=O)O)c(=O)c2cc(F)c(SCCN)cc21
> 100 | CCn1cc(C(=O)O)c(=O)c2ccc(N3CCN(CC#N)CC3)cc21
25 (≈ 61.8 µM) | CCn1cc(C(=O)O)c(=O)c2cc(F)c(N3CCN(CCCN(C)C)CC3)cc21
100 (≈ 255 µM) | CCOC(=O)N1CCN(c2nc3c(cc2F)c(=O)c(C(=O)O)cn3CC)CC1
6.3 (≈ 15.1 µM) | CCn1cc(C(=O)O)c(=O)c2cc(F)c(N3CCC(N4CCN(C)CC4)CC3)cc21

system: Klebsiella pneumoniae; assay: Antibacterial activity against Klebsiella pneumonia (MGH-2)

Compound | MIC [µg/mL]
CCn1cc(C(=O)O)c(=O)c2c(N)nc(N3CCN(C)CC3)nc21 | 6.3 (≈ 19 µM)
CCn1cc(C(=O)O)c(=O)c2cc(F)c(NCCN)nc21 | 25 (≈ 85 µM)
CCn1cc(C(=O)O)c(=O)c2cc(F)ccc21 | 1.6 (≈ 6.8 µM)
CCn1cc(C(=O)O)c(=O)c2cc(F)c(/C=N/N3CCN(C)CC3)nc21 | 25 (≈ 69.2 µM)
CCn1cc(C(=O)O)c(=O)c2cc(F)c(N3CCN(CCN)CC3)nc21 | 25 (≈ 68.8 µM)

Other lines, results leading:

MIC [µg/mL] | Compound
1.6 (≈ 5.16 µM) | CCn1cc(C(=O)O)c(=O)c2cc(F)c(SCCN)cc21
> 100 | CCn1cc(C(=O)O)c(=O)c2ccc(N3CCN(CC#N)CC3)cc21
6.3 (≈ 15.6 µM) | CCn1cc(C(=O)O)c(=O)c2cc(F)c(N3CCN(CCCN(C)C)CC3)cc21
50 (≈ 127 µM) | CCOC(=O)N1CCN(c2nc3c(cc2F)c(=O)c(C(=O)O)cn3CC)CC1
12.5 (≈ 30 µM) | CCn1cc(C(=O)O)c(=O)c2cc(F)c(N3CCC(N4CCN(C)CC4)CC3)cc21
